Results from patent publication US7625889B2, “Substituted bis aryl and heteroaryl compounds as selective 5HT2A antagonists” (Aventis Pharmaceuticals Inc., priority 2005, dated 2009).

System: newborn Sprague Dawley rats
Experiment: Obstructive Sleep Apnea Studies (L-tryptophan plus pargyline)
Assay type: in vivo, rat
Description: Intraperitoneal application of L-tryptophan (10 mg/kg) and pargyline (50 mg/kg) to anaesthetized newborn rats depresses the amplitude of the inspiratory discharges of the genioglossal muscle and induces obstructive apneas (OA). The following procedure describes how to determine the efficacy of the compounds of this invention when compared with the efficacy of theophylline.
Experiments are carried out on newborn Sprague Dawley rats. The animals are anaesthetized by intraperitoneal injection of low doses of sodium pentobarbitone (7-10 mg/kg), kept lying (dorsal cubitus) on a warming blanket and are spontaneously ventilating.
The electromyogram (EMG) activity of the genioglossal muscles and the diaphragm are recorded with fine insulated wires (bipolar recordings) inserted within the muscles, filtered (100-3,000 Hz), amplified (×5-10,000) and integrated (time constant 50 ms). The rib cage movements are recorded via a captor gently touching the lower ribs and/or the abdominal wall. The air flow changes resulting from the respiratory chest movements are recorded via a facial mask and a highly sensitive pressure recorder. […]
Effects of theophylline pre-treatment on the occurrence of obstructive apneas induced by 1-tryptophan and pargyline injection are measured as follows: Five newborn rats receive theophylline at 10 mg/kg and 5 other animals receive theophylline at 30 mg/kg. […]

Cn1c(=O)c2[nH]cnc2n(C)c1=O [theophylline]
induction of OAs after L-Trp+Prg injection (theophylline 10 or 30 mg/kg): not prevented
depression of amplitude of GG inspiratory discharges by L-Trp+Prg injection (theophylline pre-treatment 10 mg/kg or 30 mg/kg): not prevented
